We go through one compound from patent US20260212981A1, “Methods of drug dosing based on early pharmacokinetics” (NUTROMICS […] LTD, priority 2022, published 2026).

Where two headings read alike, the source gives them in different places.

Common to all, as to assay type: in vivo
The nature of data set [1]: Vancomycin concentration in dermal interstitial fluid (ISF) of human participants by wearable EAB sensor. The conditions noted are these: 1 gram; for Kp: dermal interstitial fluid (ISF) relative to blood, intravenous, read-out: Proportion of vancomycin monitored in ISF compartment in comparison to blood; for Cmax: dermal interstitial fluid (ISF), iv, read-out: Cmax in ISF compartment. The text has this: These human studies followed vancomycin levels using an EAB sensor (which may also be referred to as the “device”). The device was a self-contained wearable EAB sensor, constructed, having an on-board power supply, electrodes, and electronics, including a microprocessor and BlueTooth™ communications module.
The EAB sensor comprised four electrodes: two aptamer-coated working electrodes, a counter electrode, and a reference electrode. All electrodes were in the form of a microneedle configured to pierce the skin and contact the participant's ISF when fully inserted into the dermal tissues.
Each working electrode was coated with a vancomycin-sensitive single-stranded DNA-aptamer having a length of 28 nucleobases, obtained from Dr. Milan STOJANOVIC, New York campus research laboratory of The Trustees of Columbia University in the City of New York of 80 Claremont Avenue, 4th Floor, New York, NY 10027, United States.
A vancomycin-sensitive EAB sensor was placed onto the participant's upper arm (see FIG. 20), opposite the arm where vancomycin was being infused. The time of device application was recorded. The device was applied 30 minutes (+15 minutes) prior to administering the vancomycin infusion and the device was removed up to 10 hours post-cessation of the infusion.
(§1) 30 minutes (+15 minutes) post-application of the device, the participant received a single dose of vancomycin as an intravenous infusion (1 gram over 1 hour 40 minutes). The time of administration and completion of infusion was recorded.
Once applied to the participant, the DNA-based sensor electrodes were interrogated, and output treated as follows.
Square Wave Voltammetry (SWV) was used to interrogate the DNA-based sensor electrodes. Multiple steps were performed to convert the raw voltammograms obtained from the DNA-based sensor electrodes into a vancomycin concentration. The steps detailed below convert the raw SWV voltammograms into a signal that is indicative of the analyte concentration. • 1. Smooth the raw SWV voltammogram current versus voltage data to aid identification of the current peak and its magnitude. • 2. Apply a peak finding algorithm to the smoothed voltammogram to identify the position of the peak and to subtract a baseline current to determine a peak current magnitude. • 3. Use the determined peak currents magnitudes obtained at two different SWV interrogation frequencies (in this case 50 Hz and 300 Hz), when no vancomycin is present and when it is present to calculate an analyte concentration responsive signal (S). • 4. Smooth the S values over time, prior to applying a calibration function.
Steps 1 to 3 were used to analyse the calibration data as detailed below at (a) and (b), and steps 1 to 4 above in relation to the clinical data. • (a) Calibration data was produced from in vitro testing, where vancomycin is spiked into bovine plasma and tested using electrodes from the same production batch as those used in the clinical experiments (but not the electrode actually used in the clinical experiments). The purpose of this testing was to produce S versus known vancomycin concentration data that can be used to produce a calibration function to convert the S values into the corresponding measured vancomycin concentration values ([V]). • (b) Clinical experiment data, where the calibration function determined in (a) is applied to the S values produced by the in vivo electrodes in the clinical experiment, to convert them to measured vancomycin concentrations. […]

Data set [2] is described as follows: Skin surface temperature / adverse event monitoring of human participants during vancomycin infusion. The conditions noted are these: for Physiologic response (skin surface temperature): temperature every 5 minutes. The text has this:
Reference is made to FIG. 21A and FIG. 21B each showing a computer-rendered representation of the device (10) used in these studies, indicating one of the microneedles (30), the power supply, being a battery (105), a printed circuit board (110) having various electronic components such as the communications module and microprocessor mounted thereon, and a thermistor (115) functioning to contact the skin surface of the participant and provide an estimation of the temperature of the underlying ISF.
Participants were monitored throughout the study duration for any adverse events. Given the duration of the study visit, participants were required to stay overnight. In the absence of any adverse events, participants were discharged the following morning after being observed for at least 15 minutes post removal of the device.
The EAB sensor used in these studies penetrated 1-2 mm into the dermal interstitial compartment with micron diameter electrodes coated with a specific DNA sequence for vancomycin detection. Additionally, the EAB sensor continuously monitored (every 5 minutes) surface temperature where the normal temperature range for a human is characterised between 31-35.5° C.

Data set [3] in a line: Vancomycin concentration in blood/serum of human participants (blood draws). The conditions noted are these: blood, iv, 1 gram, single 1 gram IV infusion over 1 hour 40 minutes. As for the experimental part: These human studies were performed at Monash Health, Monash Medical Centre, Clayton, Victoria 3168, Australia, under protocol reference number 2021/ETH80521 and protocol trial identified and registry 80521. Institutional Ethics Committee approval was obtained before commencement of the study.
as §1
Blood samples for the measurement of vancomycin concentrations were collected prior to the administration of vancomycin infusion, 30 minutes (±5 minutes) and 1 hour (±10 minutes) during the infusion, at the end of the infusion (±15 minutes) and then at 40 minutes (±15 minutes), 1.5 hours (±15 minutes), 2 hours (±15 minutes), 3 hours (±15 minutes), 4 hours (±15 minutes), 6 hours (±15 minutes), 8 hours (±15 minutes) and 10 hours (±15 minutes) after the infusion has been completed.
These human studies characterised perfusion dynamics. The study was performed in relation to a 1000 mg vancomycin dose administered via venous infusion.
ISF dynamics are captured in real-time high resolution (every 5 minutes) detection of vancomycin concentration. […] In comparison to blood (Cmax, ~30 mg/L) very little vancomycin was monitored in the ISF compartment (Cmax~6 mg/L) which is interpreted as a low level of perfusion

[4] abbreviates: participant 014 (hyper-perfusion phenotype).

As for `CN[C@H](CC(C)C)C(=O)N[C@H]1C(=O)N[C@@H](CC(N)=O)C(=O)N[C@H]2C(=O)N[C@H]3C(=O)N[C@H](C(=O)N[C@H](C(=O)O)c4cc(O)cc(O)c4-c4cc3ccc4O)[C@H](O)c3ccc(c(Cl)c3)Oc3cc2cc(c3O[C@@H]2O[C@H](CO)[C@@H](O)[C@H](O)[C@H]2O[C@H]2C[C@](C)(N)[C@H](O)[C@H](C)O2)Oc2ccc(cc2Cl)[C@H]1O` [vancomycin], the Kp in data set [1] (setting [4]) was approximately 0.86; in data set [1] (participant 015 (moderate-perfusion phenotype)), approximately 0.3. Further, the highest concentration (Cmax) (commonly the maximum level reached in the sampled fluid or tissue) was approximately 6000 ng/mL in data set [1] (participant 012 (hypo-perfusion phenotype), EAB sensor 812, single 1 gram IV infusion, read every 5 minutes); approximately 10000 ng/mL in data set [1] (participant 014 (hyper-perfusion phenotype), EAB sensor 810, single 1 gram IV infusion); approximately 10000 ng/mL in data set [1] (participant 015 (moderate-perfusion phenotype), EAB sensor 818, single 1 gram IV infusion, read every 5 minutes); approximately 30000 ng/mL in data set [3] (participant 012 (hypo-perfusion phenotype), 12 blood draws over 12 hours); approximately 35000 ng/mL in data set [3] (setting [4]); approximately 30000 ng/mL in data set [3] (participant 015 (moderate-perfusion phenotype), 12 blood draws over 12 hours). The “Physiologic response (skin surface temperature)” value in data set [2] (participant 012, no elevations above 36° C.) is “no physiologic response”; in data set [2] (participant 015) it was “no elevations depicting a physiological response”. Further, the “Adverse reaction to vancomycin” value in data set [2] (participant 014, temperature elevations above 36° C. recorded, antihistamine treatment required) was “sensitivity response to vancomycin which resulted in hives and itching”.
